Source: ChEMBL document CHEMBL1201862, “PubChem BioAssay data set” (2004)
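Test compounds were applied to cells in 96-well plates for 48 hours at 5 doses. At the GI50, growth is halved.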 Activity calls are given as the source filed them. Rule as the data show it: active = GI50 up to about 1.1 µM and inactive = higher.

How the values were obtained:
Assay in all cases: NCI anticancer screen, dose series, 48 h
MDA-N = system: MDA-N
HCT-15 = system: HCT-15
NCI-H460 = system: NCI-H460
786-0 = system: 786-0
U-251 = system: U-251
A549 = system: A549
SR = system: SR
NCI/ADR-RES = system: NCI/ADR-RES
HT-29 = system: HT-29
SK-MEL-28 = system: SK-MEL-28
Hs-578T = system: Hs-578T
SW-620 = system: SW-620
IGROV-1 = system: IGROV-1
TK-10 = system: TK-10
OVCAR-4 = system: OVCAR-4
UACC-62 = system: UACC-62
HCC 2998 = system: HCC 2998
SNB-19 = system: SNB-19
M14 = system: M14
HCT-116 = system: HCT-116
NCI-H522 = system: NCI-H522
Malme-3M = system: Malme-3M
RPMI-8226 = system: RPMI-8226
SF-539 = system: SF-539
BT-549 = system: BT-549
HOP-92 = system: HOP-92
LOX IMVI = system: LOX IMVI
MDA-MB-435 = system: MDA-MB-435
CCRF-CEM = system: CCRF-CEM
SN12C = system: SN12C
MOLT-4 = system: MOLT-4
HOP-62 = system: HOP-62
K562 = system: K562
UACC-257 = system: UACC-257
SF-295 = system: SF-295
MCF7 = system: MCF7
HL-60 = system: HL-60
KM12 = system: KM12
OVCAR-5 = system: OVCAR-5
SK-MEL-2 = system: SK-MEL-2
EKVX = system: EKVX
A498 = system: A498
NCI-H226 = system: NCI-H226
UO-31 = system: UO-31
NCI-H23 = system: NCI-H23
SK-OV-3 = system: SK-OV-3
RXF 393 = system: RXF 393
CAKI-1 = system: CAKI-1
OVCAR-3 = system: OVCAR-3
PC-3 = system: PC-3
SF-268 = system: SF-268
ACHN = system: ACHN
OVCAR-8 = system: OVCAR-8
SNB-75 = system: SNB-75
COLO 205 = system: COLO 205
SK-MEL-5 = system: SK-MEL-5
MDA-MB-231 = system: MDA-MB-231
DU-145 = system: DU-145

Structure (SMILES): Cc1cc2c(cc1C)[n+]([O-])c(NCCCN(C)C)c(C#N)[n+]2[O-]
- GI50 (MDA-N): > 100 µM (inactive)
- GI50 (HCT-15): 75.2 µM
- GI50 (NCI-H460): 26.2 µM (inactive)
- GI50 (786-0): > 100 µM (inactive)
- GI50 (U-251): > 100 µM (inactive)
- GI50 (A549): > 100 µM (inactive)
- GI50 (SR): 13.2 µM (inactive)
- GI50 (NCI/ADR-RES): 85.1 µM (inactive)
- GI50 (HT-29): 61.5 µM (inactive)
- GI50 (SK-MEL-28): > 100 µM (inactive)
- GI50 (Hs-578T): > 100 µM (inactive)
- GI50 (SW-620): > 100 µM (inactive)
- GI50 (IGROV-1): 35.5 µM (inactive)
- GI50 (TK-10): > 100 µM (inactive)
- GI50 (OVCAR-4): > 100 µM (inactive)
- GI50 (UACC-62): 76.4 µM (inactive)
- GI50 (HCC 2998): 88.3 µM (inactive)
- GI50 (SNB-19): > 100 µM (inactive)
- GI50 (M14): > 100 µM (inactive)
- GI50 (HCT-116): 73.3 µM (inactive)
- GI50 (NCI-H522): 57.4 µM (inactive)
- GI50 (Malme-3M): 95.1 µM (inactive)
- GI50 (RPMI-8226): 16.1 µM (inactive)
- GI50 (SF-539): > 100 µM (inactive)
- GI50 (BT-549): 79.1 µM (inactive)
- GI50 (HOP-92): > 100 µM (inactive)
- GI50 (LOX IMVI): > 100 µM (inactive)
- GI50 (MDA-MB-435): > 100 µM (inactive)
- GI50 (CCRF-CEM): 57.3 µM (inactive)
- GI50 (SN12C): 82.4 µM (inactive)
- GI50 (MOLT-4): 22.7 µM (inactive)
- GI50 (HOP-62): > 100 µM (inactive)
- GI50 (K562): 37.5 µM (inactive)
- GI50 (UACC-257): > 100 µM (inactive)
- GI50 (SF-295): 42 µM (inactive)
- GI50 (MCF7): > 100 µM (inactive)
- GI50 (HL-60): 45.3 µM (inactive)
- GI50 (KM12): > 100 µM (inactive)
- GI50 (OVCAR-5): > 100 µM (inactive)
- GI50 (SK-MEL-2): > 100 µM (inactive)
- GI50 (EKVX): 68.5 µM (inactive)
- GI50 (A498): > 100 µM (inactive)
- GI50 (NCI-H226): 67 µM (inactive)
- GI50 (UO-31): > 100 µM (inactive)
- GI50 (NCI-H23): 80.9 µM (inactive)
- GI50 (SK-OV-3): 81.5 µM (inactive)
- GI50 (RXF 393): > 100 µM (inactive)
- GI50 (CAKI-1): 72.1 µM (inactive)
- GI50 (OVCAR-3): 76.4 µM (inactive)
- GI50 (PC-3): > 100 µM (inactive)
- GI50 (SF-268): > 100 µM (inactive)
- GI50 (ACHN): > 100 µM (inactive)
- GI50 (OVCAR-8): > 100 µM (inactive)
- GI50 (SNB-75): 85.7 µM (inactive)

Structure (SMILES): O=C(C=P(c1ccccc1)(c1ccccc1)c1ccccc1)c1ccc(-c2cccc([N+](=O)[O-])c2)s1
- GI50 (COLO 205): 14 µM (inactive)
- GI50 (MDA-N): 29.7 µM (inactive)
- GI50 (HCT-15): 41.1 µM
- GI50 (NCI-H460): 39.4 µM (inactive)
- GI50 (786-0): > 100 µM (inactive)
- GI50 (U-251): 75.2 µM (inactive)
- GI50 (A549): 57.5 µM (inactive)
- GI50 (SR): 42.5 µM (inactive)
- GI50 (NCI/ADR-RES): 25.8 µM (inactive)
- GI50 (HT-29): 29.6 µM (inactive)
- GI50 (SK-MEL-28): 44 µM (inactive)
- GI50 (Hs-578T): 52.5 µM (inactive)
- GI50 (SW-620): 38.2 µM (inactive)
- GI50 (IGROV-1): 50 µM (inactive)
- GI50 (TK-10): 83.8 µM (inactive)
- GI50 (OVCAR-4): 31.3 µM (inactive)
- GI50 (UACC-62): 59 µM (inactive)
- GI50 (HCC 2998): 51.1 µM (inactive)
- GI50 (SNB-19): > 100 µM (inactive)
- GI50 (M14): > 100 µM (inactive)
- GI50 (HCT-116): 61.8 µM (inactive)
- GI50 (NCI-H522): 23.7 µM (inactive)
- GI50 (Malme-3M): 81.7 µM (inactive)
- GI50 (RPMI-8226): 19.5 µM (inactive)
- GI50 (SK-MEL-5): 29.9 µM (inactive)
- GI50 (SF-539): 63.4 µM (inactive)
- GI50 (BT-549): > 100 µM (inactive)
- GI50 (HOP-92): 16.4 µM (inactive)
- GI50 (LOX IMVI): 67 µM (inactive)
- GI50 (MDA-MB-435): 51.5 µM (inactive)
- GI50 (CCRF-CEM): 30.6 µM (inactive)
- GI50 (SN12C): 68.7 µM (inactive)
- GI50 (MOLT-4): 20.6 µM (inactive)
- GI50 (HOP-62): > 100 µM (inactive)
- GI50 (K562): 37 µM (inactive)
- GI50 (SF-295): 47.4 µM (inactive)
- GI50 (MCF7): 29.4 µM (inactive)
- GI50 (HL-60): 26 µM (inactive)
- GI50 (KM12): 42 µM (inactive)
- GI50 (OVCAR-5): > 100 µM (inactive)
- GI50 (EKVX): 57.7 µM (inactive)
- GI50 (A498): 35.2 µM (inactive)
- GI50 (MDA-MB-231): > 100 µM (inactive)
- GI50 (UO-31): 48.2 µM (inactive)
- GI50 (NCI-H23): 77.6 µM (inactive)
- GI50 (SK-OV-3): 36.1 µM (inactive)
- GI50 (RXF 393): 70.8 µM (inactive)
- GI50 (CAKI-1): 35.2 µM (inactive)
- GI50 (OVCAR-3): 32.7 µM (inactive)
- GI50 (PC-3): 24.9 µM (inactive)
- GI50 (DU-145): > 100 µM (inactive)
- GI50 (SF-268): > 100 µM (inactive)
- GI50 (ACHN): 45.4 µM (inactive)
- GI50 (OVCAR-8): 47.3 µM (inactive)
- GI50 (SNB-75): 24 µM (inactive)
